Where two headings read alike, the source gives them in different places.
What was measured:
[1] = tested on: Cryptococcus neoformans var. grubii H99; ATCC 208821; assay: Single-dose growth inhibition, Cn; assay type: cell-based
Description: (§1) Growth inhibition of C. albicans was determined by measuring the absorbance at 530 nm (OD530), while the growth inhibition of C. neoformans was determined by measuring the difference in absorbance between 600 and 570 nm (OD600-570), after the addition of resazurin (0.001 wt. % final concentration) and incubation at 35° C. for additional 2 hrs. The absorbance was measured using a Biotek Synergy HTX plate reader. The relative growth inhibition was calculated for each well, relative to that determined from a negative control (media only) and positive control (bacteria without inhibitors) on the same plate as references. A single dose of 32 μg/mL of COE (final concentration) was used for each test.
(§2) Percentage growth inhibition of an individual sample was calculated based on growth in a reference well determined from negative controls (media only) and positive controls (bacterial/fungal media without inhibitors). Negative inhibition values indicate that the growth rate (or OD600) is higher compared to the reference growth (bacteria/fungi only, set to 0% inhibition). The growth rates for all bacteria and fungi may vary at −/+10%, which were within the reported normal distribution of bacterial/fungal growth. Any significant variations (or outliers/hits) were identified by the modified Z-Score, and the active compounds were selected by a combination of inhibition values and Z-Score.
(§3) A M(i) value of >|2.5| (absolute) would classify the sample as outliers or hits. Active samples were denoted as compounds with inhibition values equal to or above 80% and absolute Z-Score above |2.5| for either replicate (n=2 on different plates). Partial active samples were denoted as compounds with inhibition values from 50% to <80%, or absolute Z-Score below |2.5|.

[2] = tested on: Staphylococcus aureus MRSA ATCC 43300; assay: Single-dose growth inhibition, Sa; assay type: cell-based
Description: Inhibition of bacterial growth was determined by measuring the absorbance at 600 nm (OD600), using a Tecan M1000 Pro monochromator plate reader. Growth inhibition was calculated for each well, relative to the reference growths determined from a negative control (media only) and positive control (bacteria without inhibitors) incubated in the same plate. A single dose of 32 μg/mL of COE (final concentration) was used for each test.
as §2, §3

[3] = tested on: Candida albicans ATCC 90028; assay: Single-dose growth inhibition, Ca; assay type: cell-based
Description: as §1, §2, §3

[4] = tested on: Enterococcus faecalis OG1RF; assay: MIC by broth microdilution against E. faecalis OG1RF; assay type: cell-based; settings: BHI
Description: (§4) The respective minimum inhibition concentration (MIC) of each COE molecule was determined using a broth microdilution method. Briefly, COEs were diluted via a 2-fold dilution series in 100 μL of either Muller Hinton Broth (MHB) for E. coli and S. aureus or Brain Heart Infusion Broth (BHI) for E. faecalis in a 96-well plate to achieve the desired final concentration. Subsequently, each well was inoculated with 100 μL of 1×10^6 colony forming units (CFU) mL^−1 of the respective microorganism in MHB for E. coli or BHI for E. faecalis to achieve an inoculum density of 5×10^5 CFU mL^−1. The plates were then incubated at 37° C. with shaking (200 rpm) for 18 hrs. […] The results were obtained in triplicate.
The MIC values of COE-D4, COE-D6 and COE-D8 against the reference strain E. coli K12, pathogenic E. coli UT189, and the Gram positive pathogen Enterococcus faecalis OG1RF were determined using a broth microdilution method as described in the general method above. The MICs for E. coli K12 were determined to be 128, 16, and 4 μg mL^−1 for COE-D4, COE-D6, and COE-D8, respectively (FIG. 5a). […] This is not surprising as these two organisms differ in the capsular polysaccharides that they expressed, which are known to hinder the uptake of antimicrobials and mitigate their potency (M. A. Campos, et al., Infect. Immun. 2004, 72, 7107-7114). […]

HepG2 cells = assay: Toxicity on HepG2 cells; assay type: cell-based; settings: Homo sapiens
[5] = tested on: Methicillin-resistant Staphylococcus aureus (MRSA BAA-40); assay: MIC against MRSA BAA-40; assay type: cell-based; settings: for MIC in comparison with vancomycin: all three strains: E. coli K12, S. aureus 25923, MRSA BAA-40 (FIG. 5b)
Description: as §4
The antimicrobial effects of COE-D62N and COE-D82N were also tested on the Gram-positive Staphylococcus aureus 25923 and Methicillin-resistant Staphylococcus aureus(MRSA BAA-40), in comparison with vancomycin (FIG. 5b).

MRSA BAA-40 [6] = assay: Resistance evolution experiment (serial passage); assay type: cell-based, Staphylococcus aureus; settings: for MIC on MRSA BAA-40 during serial passage: from the 5th day onwards, 17 days; for Tendency to cause resistance in the bacteria: serial passage for 17 days
Description: To evaluate the propensity of COE to induce resistance, a serial passage of MRSA BAA-40 in MHB medium containing 100-fold diluted stationary-phase culture with increasing concentrations of COE was performed.

[7] = Intrinsic hepatic clearance in mice; assay type: in vitro ADME
MRSA BAA-40 [8] = assay: Time-kill assay; assay type: cell-based, Staphylococcus aureus; settings: 32 μg/mL; for Reduction of viability of MRSA BAA-40 compared with vancomycin: FIG. 11a
Description: A stationary-phase culture of MRSA BAA-40 was diluted to 2×10^8 CFU/mL in fresh MHB. 500 μL of this suspension was then mixed with another 500 μL of MHB containing twice the desired final concentrations of COEs and vancomycin (32 μg/mL). The tube was incubated at 37° C. with 200 rpm shaking. Aliquots were removed at various time points and were serially diluted in PBS, and plated on MHB plates to enumerate CFU/mL.

[9] = tested on: Staphylococcus aureus on reconstituted human epidermis (RHE); assay: Reconstituted human epidermis skin model inoculated with S. aureus; assay type: cell-based; settings: 10× the MIC of S. aureus
Description: Reconstituted human epidermis (RHE) was cultured in multiwell plates on polymer membrane inserts (0.5 cm^2 surface area) using immortalized human keratinocytes (250,000 NTERTS) in CnT prime media (from CellnTec) for 48 hours after which they were transferred to CnT 3D prime media for 24 hours before air lifting. The media was changed every 48 hours thereafter and RHE was grown for at least 7 days. After the stratified layers of the RHE were formed, a standardised inoculum of Staphylococcus aureus was added to RHEs (with the exception of the negative control), followed by the addition of 10× the MIC of S. aureaus of antimicrobial COEs.

[10] = Intrinsic clearance in human; assay type: in vitro ADME
[11] = ATCC208821, read-out: Growth inhibition Cn
[12] = ATCC90028, read-out: Growth inhibition Ca
[13] = ATCC208821, 32 μg/mL single dose, n=2, read-out: Growth inhibition Cn
[14] = 32 μg/mL single dose, n=2, read-out: Growth inhibition Sa
[15] = ATCC90028, 32 μg/mL single dose, n=2, read-out: Growth inhibition Ca

Row | SMILES | inhibition at 32 µg/mL [1, 11] [%] | inhibition at 32 µg/mL ([2]; read-out: Growth inhibition Sa) [%] | inhibition at 32 µg/mL [3, 12] [%] | MIC [4] [µg/mL] | IC50 (HepG2 cells) [µM] | MIC ([5]; Staphylococcus aureus) [µg/mL] | MIC in comparison with vancomycin [5] | MIC on MRSA BAA-40 during serial passage (MRSA BAA-40 [6]) | Tendency to cause resistance in the bacteria (MRSA BAA-40 [6]) | intrinsic hepatic clearance in mice [7] | inhibition at 32 µg/mL [1, 13] [%] | inhibition at 32 µg/mL [2, 14] [%] | Reduction of viability of MRSA BAA-40 compared with vancomycin (MRSA BAA-40 [8]) | Skin structure of infected RHE model after treatment [9] | inhibition at 32 µg/mL [3, 15] [%] | intrinsic clearance in human [10] | Time to reduce viability of MRSA close to the minimum (MRSA BAA-40 [8]) [h]
1 | C[N+](C)(C)CCCCOc1ccc(/C=C/c2ccc(OCCCC[N+](C)(C)C)cc2)cc1 [COE-D4] | > 80 | > 80 | < 50 | – | – | – | – | – | – | – | – | – | – | – | – | – | –
2 | C[N+](C)(C)CCCCCCOc1ccc(/C=C/c2ccc(OCCCCCC[N+](C)(C)C)cc2)cc1 [COE-D6] | > 80 | > 80 | > 80 | – | – | – | – | – | – | – | – | – | – | – | – | – | –
3 | C[N+](C)(C)CCCCCCCCOc1ccc(/C=C/c2ccc(OCCCCCCCC[N+](C)(C)C)cc2)cc1 [COE-D8] | > 80 | > 80 | > 80 | 4 | – | – | – | – | – | – | – | – | – | – | – | – | –
4 | CN(C)CC[N+](C)(C)CCCCCCOc1ccc(/C=C/c2ccc(OCCCCCC[N+](C)(C)CCN(C)C)cc2)cc1 [COE-D62N] | – | – | – | – | > 30 | 1 | lower MIC than vancomycin | remained relatively constant | low tendency to cause resistance | good | > 80 | > 80 | much faster than that of vancomycin | intact skin structure | > 80 | good | –
5 | CN(C)CC[N+](C)(C)CCCCCCCCOc1ccc(/C=C/c2ccc(OCCCCCCCC[N+](C)(C)CCN(C)C)cc2)cc1 [COE-D82N] | – | – | – | – | – | – | lower MIC than vancomycin | remained relatively constant | low tendency to cause resistance | – | > 80 | > 80 | much faster than that of vancomycin | intact skin structure | > 80 | – | ≤ 2
